From patent US20240287131A1, “PEPTIDE” (AGC Inc., priority 2021, published 2024)

System: HeLa cells
Experiment: Evaluation of ability to permeate cell membrane (uptake into cells, flow cytometry of Alexa Fluor 647 fluorescence)
Format: cell-based
Conditions: 1.5 μM sample solution, 37° C., 1 hour; ratio to fluorescent dye 1
Protocol: A DMSO solution of the synthesized peptide fluorescent conjugates 1, 4, and 5, and fluorescent dye 1 was diluted using a DMEM low-glucose culture solution to a concentration of 1.5 μM, the concentration of the DMSO contained was adjusted to 0.15%, and the resulting solution was used as a sample solution for a cell membrane permeability test.
HeLa cells were seeded in a 96-well cell culture plate 24 hours before peptide treatment (0.5×10^5 cells/well).
The medium of HeLa cells pre-cultured at 37° C. for 24 hours was replaced with a sample solution of the peptide fluorescent conjugates 1, 4, and 5 and the fluorescent dye 1, and the ability to permeate a cell membrane after culturing at 37° C. for 1 hour was evaluated. […] The collected cells were analyzed by flow cytometry (guava easyCyte (trademark) 8) measuring red 2 fluorescence (661/15 nm) for detecting the fluorescent dye (Alexa Fluor647) introduced into the peptide fluorescent conjugate.
Using sample solutions of the peptide fluorescent conjugates 1 and 2, TAT-Alexa, and the fluorescent dye 1 prepared in the same manner as in Test Example 1, the red 2 fluorescence (661/15 nm) was measured and analyzed by flow cytometry by the same procedure as in Test Example 1. […]

Q: For “TAT-Alexa: Alexa Fluor 647 C2 Maleimide added to the terminal Cys of Cys-TAT(47-57), commercially available cell-penetrating peptide (YGRKKRRQRRR; N-terminal Cys with Alexa Fluor 647; C-terminal amide; printed: Tyr-Gly-Arg-Lys-Lys-Arg-Arg-Gln-Arg-Arg-Arg-)”, which “average value of the fluorescence intensities of Alexa Fluor 647 in cells (MFI) relative to cells treated with the fluorescent dye 1” value is on record?
A: about double
